Patent publication US11999727B2 (Tango Therapeutics, Inc., priority 2020, dated 2024)
Where two headings read alike, the source gives them in different places.

Tests used:
[1] = tested on: HAP1 MTAP-deleted cell line; test: SDMA in-cell western assay, HAP1 MTAP-deleted; type: cell-based; conditions: for IC50: HAP1 MTAP-deleted
In short: (§1)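 Isogenic HAP1 pair: the MTAP-intact line expresses endogenous MTAP, and the deleted line is MTAP-null. Symmetric dimethylarginine was detected by in-cell western and IC50 values derived for each line.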

PRMT5 [2] = target: T1, PRMT5 (Homo sapiens, UniProt O14744); test: PRMT5 biochemical IC50 assay with MTA as cofactor; conditions: PRMT5, MTA as cofactor; read-out: MTA IC50
T1 construct: purchased Viva (custom protein)
T1 sequence (O14744 whole entry): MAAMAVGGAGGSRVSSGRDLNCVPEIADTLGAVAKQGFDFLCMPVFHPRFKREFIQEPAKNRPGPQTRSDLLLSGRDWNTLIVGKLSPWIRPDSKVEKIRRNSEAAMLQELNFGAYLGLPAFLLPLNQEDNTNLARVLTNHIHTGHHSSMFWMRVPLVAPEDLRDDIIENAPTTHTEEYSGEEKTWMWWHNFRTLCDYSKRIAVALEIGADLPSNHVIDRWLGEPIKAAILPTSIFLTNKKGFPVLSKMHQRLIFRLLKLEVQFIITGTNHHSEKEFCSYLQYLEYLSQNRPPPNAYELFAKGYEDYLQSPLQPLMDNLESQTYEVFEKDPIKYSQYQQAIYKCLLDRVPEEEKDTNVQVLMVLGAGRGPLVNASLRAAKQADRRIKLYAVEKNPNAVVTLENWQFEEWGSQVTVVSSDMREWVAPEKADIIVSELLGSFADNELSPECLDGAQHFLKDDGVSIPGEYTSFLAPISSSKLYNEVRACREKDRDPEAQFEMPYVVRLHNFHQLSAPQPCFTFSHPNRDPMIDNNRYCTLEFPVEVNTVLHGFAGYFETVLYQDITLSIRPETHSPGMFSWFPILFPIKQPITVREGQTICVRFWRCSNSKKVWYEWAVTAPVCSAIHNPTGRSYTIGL
T1 sequence (Q9BQA1 whole entry partner): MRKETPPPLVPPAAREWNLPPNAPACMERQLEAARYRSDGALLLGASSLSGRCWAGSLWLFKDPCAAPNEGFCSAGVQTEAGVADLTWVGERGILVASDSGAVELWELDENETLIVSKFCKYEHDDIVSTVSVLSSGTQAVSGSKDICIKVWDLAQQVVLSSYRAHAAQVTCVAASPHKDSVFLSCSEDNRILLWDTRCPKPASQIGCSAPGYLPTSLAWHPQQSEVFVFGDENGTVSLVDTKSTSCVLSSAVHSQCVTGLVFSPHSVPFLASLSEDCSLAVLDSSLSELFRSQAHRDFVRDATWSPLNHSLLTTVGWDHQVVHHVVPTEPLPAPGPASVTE

[3] = tested on: HAP1 MTAP-intact cell line; test: SDMA in-cell western assay, HAP1 MTAP-intact; type: cell-based; conditions: HAP1 MTAP-intact, read-out: MTAP HAP1 intact IC50
In short: as §1

[4] = tested on: HAP1 MTAP-deleted cell line; test: Viability assay, MTAP-deleted cell line; type: cell-based; conditions: read-out: HAP1 MTAP deleted viability
Excerpt: Table 1 additionally indicates IC50 values in a viability assay for the MTAP-deleted cell line (column 10), indicating the effect of treatment with compound on cell survival.

PRMT5 [5] = target: T1, PRMT5; test: PRMT5 biochemical IC50 assay with SAM as cofactor; conditions: PRMT5, SAM as cofactor; read-out: SAM IC50
PRMT5 [6] = target: T1, PRMT5; test: PRMT5 biochemical IC50 assay with no cofactor; conditions: PRMT5, no cofactor
Excerpt: Table 1 indicates IC50 values (μM) against PRMT5 for exemplary compounds in the presence of SAM as cofactor, with no cofactor, and with MTA as cofactor, respectively (columns 4-6). […] Ki values can be calculated from the IC50 values as described in the Examples section. As detailed in the Examples section, for the assay performed in the presence of SAM, IC50=Ki×1.5 (Ki=IC50/1.5).

[7] = Homo sapiens, HAP1, SDMA in-cell western, read-out: HAP 1 MTAP deleted IC50
[8] = IC50 ratio HAP1 MTAP-intact / HAP1 MTAP-deleted, SDMA in-cell western
[9] = Homo sapiens, HAP1, SDMA in-cell western
[10] = Homo sapiens, HAP1, viability, HAP1 MTAP-deleted cell line
[11] = read-out: No Cofactor/ rel IC50
[12] = SDMA in-cell western, read-out: HAP 1 MTAP deleted IC50
[13] = Homo sapiens, HAP1, viability assay, MTAP-deleted cell line
[14] = Homo sapiens, HAP1, SDMA in-cell western, read-out: HAP1 MTAP deleted IC50
[15] = Homo sapiens, HAP1, viability IC50, MTAP-deleted cell line

Compound | IC50 [1, 7] [nM] | IC50 (PRMT5 [2]) [nM] | IC50 [3, 9] [nM] | IC50 (PRMT5 [5]) [nM] | IC50 (PRMT5 [6]; [11]) [nM] | IC50 [1, 12] [nM] | IC50 ([3]; SDMA in-cell western) [nM] | IC50 (PRMT5 [6]; read-out: No Cofactor/rel IC50) [nM] | IC50 [1, 14] [nM] | MTAP intact/deleted ratio [1, 8] | IC50 [4, 10] [nM] | IC50 ([4]; viability assay, MTAP-deleted cell line) [nM] | IC50 [4, 13] [nM] | IC50 ([4]; viability, HAP1 MTAP-deleted cell line) [nM] | IC50 [4, 15] [nM] | MTAP intact/deleted ratio ([1]; IC50 ratio HAP1 MTAP-intact vs HAP1 MTAP-deleted, SDMA in-cell western)
CC(=O)N1CCC(c2cccc(C3CCCCN3C(=O)C(=O)Nc3cncc(C)c3)c2)CC1 (single isomer, unassigned) [Compound 78] | – | 50 to 500 | – | > 500 | > 500 | > 1000 | > 1000 | – | – | C (an IC50 ratio of less than 3 fold) | – | > 10000 | – | – | – | –
NC(=O)c1cncc(NC(=O)C(=O)N2CCC3(CCCCC3)CC2)c1 [Compound 203, 5-[[2-(3-Azaspiro[5.5]undecan-3-yl)-2-oxo-acetyl]amino]pyridine-3-carboxamide] | – | < 50 | > 1000 | 50 to 500 | – | – | – | > 500 | 100 to 1000 | A (an IC50 ratio greater than or equal to 10 fold) | – | – | > 10000 | – | – | –
C[C@@H]1CC[C@@H](c2cncc(F)c2)N(C(=O)C(=O)Nc2cncc(C(N)=O)c2)C1 (racemic) [Compound 248, rac-5-{2-[(2R,5S)-2-(5-Fluoropyridin-3-yl)-5-methylpiperidin-1-yl]-2-oxoacetamido}pyridine-3-carboxamide] | – | 50 to 500 | > 1000 | > 500 | – | – | – | > 500 | > 1000 | B (an IC50 ratio greater than or equal to 3 fold but lower than 10 fold) | – | – | > 10000 | – | – | –
CC(=O)Oc1ccc([C@H]2CC[C@H](C)CN2C(=O)C(=O)Nc2cncc(C(N)=O)c2)cc1 (single isomer, unassigned) [Compound 604, 4-(1-(2-((5-carbamoylpyridin-3-yl)amino)-2-oxoacetyl)-5-methylpiperidin-2-yl)phenyl acetate] | < 100 | 50 to 500 | 100 to 1000 | < 50 | – | – | – | 50 to 500 | – | A (an IC50 ratio greater than or equal to 10 fold) | – | – | – | – | < 1000 | –
Cc1cc([C@@H]2CC[C@@H](C)CN2C(=O)C(=O)Nc2cncc(C(N)=O)c2)ccc1F (racemic) [Compound 131, rac-5-{2-[(2R,5S)-2-(4-Fluoro-3-methylphenyl)-5-methylpiperidin-1-yl]-2-oxoacetamido}pyridine-3-carboxamide] | < 100 | < 50 | > 1000 | > 500 | 50 to 500 | – | – | – | – | A (an IC50 ratio greater than or equal to 10 fold) | – | – | 1000 to 10000 | – | – | –
Cc1cc(NC(=O)C(=O)N2C[C@H](C)CC[C@H]2c2cccc(S(N)(=O)=O)c2)cnc1N (racemic) [Compound 688, N-(6-amino-5-methyl-3-pyridyl)-2-[(2S,5R)-5-methyl-2-(3-sulfamoylphenyl)-1-piperidyl]-2-oxo-acetamide] | 100 to 1000 | < 50 | > 1000 | 50 to 500 | – | – | – | 50 to 500 | – | A (an IC50 ratio greater than or equal to 10 fold) | – | – | – | – | 1000 to 10000 | –
Cc1cc(NC(=O)C(=O)N2C[C@@H](C)CC[C@@H]2c2ccc3sccc3c2)cnc1N (single isomer, unassigned) [Compound 634] | < 100 | < 50 | 100 to 1000 | < 50 | – | – | – | < 50 | – | A (an IC50 ratio greater than or equal to 10 fold) | – | – | – | – | < 1000 | –
Cc1cc(NC(=O)C(=O)N2C[C@H](C)CC[C@H]2[C@@H]2CCC[C@H](O)C2)cnc1N (single isomer, unassigned) [Compound 567] | > 1000 | > 500 | > 1000 | > 500 | – | – | – | > 500 | – | C (an IC50 ratio of less than 3 fold) | – | – | – | – | > 10000 | –
Cc1cc(NC(=O)C(=O)N2C[C@H](C)CC[C@H]2c2ccc3c(c2)CNC3=O)cnc1N (single isomer, unassigned) [Compound 581] | < 100 | 50 to 500 | 100 to 1000 | < 50 | – | – | – | 50 to 500 | – | A (an IC50 ratio greater than or equal to 10 fold) | – | – | – | – | 1000 to 10000 | –

Now from value to compound, other results behind:

IC50 [1, 7] [nM] | IC50 (PRMT5 [2]) [nM] | IC50 [3, 9] [nM] | IC50 (PRMT5 [5]) [nM] | IC50 (PRMT5 [6]; [11]) [nM] | IC50 [1, 12] [nM] | IC50 ([3]; SDMA in-cell western) [nM] | IC50 (PRMT5 [6]; read-out: No Cofactor/rel IC50) [nM] | IC50 [1, 14] [nM] | Compound | MTAP intact/deleted ratio [1, 8] | IC50 [4, 10] [nM] | IC50 ([4]; viability assay, MTAP-deleted cell line) [nM] | IC50 [4, 13] [nM] | IC50 ([4]; viability, HAP1 MTAP-deleted cell line) [nM] | IC50 [4, 15] [nM] | MTAP intact/deleted ratio ([1]; IC50 ratio HAP1 MTAP-intact vs HAP1 MTAP-deleted, SDMA in-cell western)
< 100 | < 50 | 100 to 1000 | 50 to 500 | < 50 | – | – | – | – | CCc1cc(NC(=O)C(=O)N2C[C@@H](C)CC[C@@H]2c2ccc3nn(C4CN(C)C4)cc3c2)cnc1N (racemic) [Compound 1239, N-(6-Amino-5-ethyl-3-pyridyl)-2-oxo-2-[rac-(2R,5S)-5-methyl-2-[2-(1-methylazetidin-3-yl)indazol-5-yl]-1-piperidyl]acetamide] | A (an IC50 ratio greater than or equal to 10 fold) | < 1000 | – | – | – | – | –
> 1000 | > 500 | > 1000 | > 500 | – | – | – | > 500 | – | Cc1cc(NC(=O)C(=O)N2C[C@H](C)CC[C@H]2c2ccc(-c3cncs3)cc2)cnc1N (single isomer, unassigned) [Compound 900, N-(6-amino-5-methylpyridin-3-yl)-2-(5-methyl-2-(4-(thiazol-5-yl)phenyl)piperidin-1-yl)-2-oxoacetamide] | C (an IC50 ratio of less than 3 fold) | – | – | > 10000 | – | – | –
< 100 | < 50 | 100 to 1000 | 50 to 500 | < 50 | – | – | – | – | CCc1cc(NC(=O)C(=O)N2C[C@@H](C)CC[C@@H]2c2ccn3cc(C4CCN(C)CC4)nc3c2)cnc1N [Compound 1274, N-(6-amino-5-ethylpyridin-3-yl)-2-((2R,5S)-5-methyl-2-(2-(1-methylpiperidin-4-yl)imidazo[1,2-a]pyridin-7-yl)piperidin-1-yl)-2-oxoacetamide] | A (an IC50 ratio greater than or equal to 10 fold) | < 1000 | – | – | – | – | –
– | < 50 | – | 50 to 500 | < 50 | < 100 | 100 to 1000 | – | – | CCc1cc(NC(=O)C(=O)N2C[C@@H](C)CC[C@@H]2c2cccc([C@H]3CCCN(C)C3)c2)cnc1N (single isomer, unassigned) [Compound 1353] | A (an IC50 ratio greater than or equal to 10 fold) | – | – | – | < 1000 | – | –
< 100 | < 50 | 100 to 1000 | 50 to 500 | – | – | – | < 50 | – | C[C@@H]1CC[C@@H](c2cc3cn[nH]c3s2)N(C(=O)C(=O)Nc2cncc(C(N)=O)c2)C1 (single isomer, unassigned) [Compound 943, 5-(2-(5-methyl-2-(1H-thieno[2,3-c]pyrazol-5-yl)piperidin-1-yl)-2-oxoacetamido)nicotinamide] | A (an IC50 ratio greater than or equal to 10 fold) | – | – | < 1000 | – | – | –
> 1000 | < 50 | > 1000 | 50 to 500 | – | – | – | 50 to 500 | – | C[C@@H]1CC[C@@H](c2ccc(NS(C)(=O)=O)nc2)N(C(=O)C(=O)Nc2cncc(C(N)=O)c2)C1 (single isomer, unassigned) [Compound 1003] | C (an IC50 ratio of less than 3 fold) | – | – | > 10000 | – | – | –
100 to 1000 | < 50 | 100 to 1000 | 50 to 500 | – | – | – | 50 to 500 | – | Cc1cc(NC(=O)C(=O)N2C[C@@H](C)CC[C@@H]2c2ccc(C(F)(F)F)nc2)cnc1N (single isomer, unassigned) [Compound 1012] | C (an IC50 ratio of less than 3 fold) | – | – | 1000 to 10000 | – | – | –
– | < 50 | 100 to 1000 | 50 to 500 | – | – | – | < 50 | < 100 | CCc1cc(NC(=O)C(=O)N2CC(C)CCC2c2ccc(N3CCC4C(CCCN4C)C3)cc2)cnc1N (single isomer, unassigned) [Compound 1132] | – | – | – | < 1000 | – | – | A (an IC50 ratio greater than or equal to 10 fold)
< 100 | < 50 | 100 to 1000 | < 50 | < 50 | – | – | – | – | Cc1cc(NC(=O)C(=O)N2C[C@@H](C)CC[C@@H]2c2ccc3sc(C4CCN(C5COC5)CC4)nc3c2)cnc1N [Compound 1268, N-(6-amino-5-methylpyridin-3-yl)-2-((2R,5S)-5-methyl-2-(2-(1-(oxetan-3-yl)piperidin-4-yl)benzo[d]thiazol-5-yl)piperidin-1-yl)-2-oxoacetamide] | A (an IC50 ratio greater than or equal to 10 fold) | < 1000 | – | – | – | – | –
